According to patent US4156724A, “N-acylamino-alpha-arylacetamido cephalosporins and antibacterial compositions and methods containing them” (Sumitomo Chemical Company, Limited, priority 1974, dated 1979):
In brackets after ≈: the same amount, converted by molar mass.

What was measured:
Assay type in all cases: cell-based
[1] = system: Staphylococcus aureus FS 289; experiment: Minimum Inhibitory Concentration, Staphylococcus aureus FS 289; conditions: Staphylococcus aureus FS 289, strain resistant to penicillin; for MIC: FS289, read-out: Minimum Inhibitory Concentration
Description: (§1) anti-microbial activity tests were carried out on the compounds obtained in the Examples.
*Staphylococcus aureus FS 289: strain resistant to penicillin

Serratia No. 72 = experiment: Minimum Inhibitory Concentration, Serratia No. 72
Description: as §1

[2] = system: Pseudomonas aeruginosa 104; experiment: Minimum Inhibitory Concentration, Pseudomonas aeruginosa 104; conditions: Pseudomonas aeruginosa 104; for MIC: read-out: Minimum Inhibitory Concentration
Description: as §1

Proteus vulgaris HX 19 = experiment: Minimum Inhibitory Concentration, Proteus vulgaris HX 19; conditions: Proteus vulgaris HX 19; for MIC: HX19, read-out: Minimum Inhibitory Concentration
Description: as §1

[3] = system: Staphylococcus aureus 209 P; experiment: Minimum Inhibitory Concentration, Staphylococcus aureus 209 P; conditions: Staphylococcus aureus 209 P; for MIC: read-out: Minimum Inhibitory Concentration
Description: as §1

Escherichia coli NIHJ = experiment: Minimum Inhibitory Concentration, Escherichia coli NIHJ; conditions: Escherichia coli NIHJ; for MIC: read-out: Minimum Inhibitory Concentration
Description: as §1

[4] = system: Klebsiella pneumoniae 602; experiment: Minimum Inhibitory Concentration, Klebsiella pneumoniae 602; conditions: for MIC: Klebsiella pneumoniae, 602, Klebsiella pneumoniae 602, read-out: Minimum Inhibitory Concentration
Description: as §1

[5] = system: Enterobacter aerogeneus No. 75; experiment: Minimum Inhibitory Concentration, Enterobacter aerogeneus No. 75; conditions: Enterobacter aerogeneus No. 75; for MIC: read-out: Minimum Inhibitory Concentration
Description: as §1

Row | SMILES | MIC [1] [µg/mL] | MIC (Serratia No. 72) [µg/mL] | MIC [2] [µg/mL] | MIC (Proteus vulgaris HX 19) [µg/mL] | MIC [3] [µg/mL] | MIC (Escherichia coli NIHJ) [µg/mL] | MIC [4] [µg/mL] | MIC [5] [µg/mL] | Minimum Inhibitory Concentration [1] [µg/mL] | Minimum Inhibitory Concentration (Serratia No. 72) [µg/mL] | Minimum Inhibitory Concentration [2] [µg/mL] | Minimum Inhibitory Concentration (Proteus vulgaris HX 19) [µg/mL] | Minimum Inhibitory Concentration [3] [µg/mL] | Minimum Inhibitory Concentration (Escherichia coli NIHJ) [µg/mL] | Minimum Inhibitory Concentration ([4]; Klebsiella pneumoniae 602) [µg/mL] | Minimum Inhibitory Concentration [5] [µg/mL]
1 | Cc1nnc(SCC2=C(C(=O)O)N3C(=O)C(NC(=O)C(NC(=O)c4cnc5sccc5c4O)c4cccc(N)c4)C3SC2)s1 (stereo not drawn) [Example 75] | 12.5 (≈ 18.7 µM) | 25 (≈ 37.3 µM) | 6.25 (≈ 9.33 µM) | 0.39 (≈ 0.582 µM) | 1.56 (≈ 2.33 µM) | 6.25 (≈ 9.33 µM) | 3.13 (≈ 4.67 µM) | 12.5 (≈ 18.7 µM) |  |  |  |  |  |  |  | 
2 | CC(=O)OCC1=C(C(=O)[O-])N2C(=O)C(NC(=O)C(NC(=O)c3cnc4cccnc4c3O)c3ccc(O)c(O)c3)C2SC1.[Na+] (stereo not drawn) [Example 142] |  |  |  |  |  |  |  |  | 6.25 | 50 | 6.25 | 0.78 | 1.56 | 3.13 | 3.13 | 6.25
3 | NCc1nnc(SCC2=C(C(=O)O)N3C(=O)C(NC(=O)C(NC(=O)c4cnc5cccnc5c4O)c4cccc(N)c4)C3SC2)s1 (stereo not drawn) [Example 79] | 12.5 (≈ 18.4 µM) | 12.5 (≈ 18.4 µM) | 3.13 (≈ 4.6 µM) | 0.2 (≈ 0.294 µM) | 0.78 (≈ 1.15 µM) | 6.25 (≈ 9.19 µM) | 3.13 (≈ 4.6 µM) | 6.25 (≈ 9.19 µM) |  |  |  |  |  |  |  | 
4 | CSc1nc(O)c2c(O)c(C(=O)NC(C(=O)NC3C(=O)N4C(C(=O)O)=C(CSc5nnnn5C)CSC34)c3ccc(O)cc3)cnc2n1 (stereo not drawn) [Example 160] | 12.5 (≈ 17.5 µM) | 50 (≈ 70.2 µM) | 12.5 (≈ 17.5 µM) | 1.56 (≈ 2.19 µM) | 0.78 (≈ 1.09 µM) | 12.5 (≈ 17.5 µM) | 6.25 (≈ 8.77 µM) | 12.5 (≈ 17.5 µM) |  |  |  |  |  |  |  | 
5 | CN(C)c1ccc2ncc(C(=O)NC(C(=O)NC3C(=O)N4C(C(=O)O)=C(CSc5nnnn5C)CSC34)c3ccc(O)cc3)c(O)c2n1 (stereo not drawn) [Example 166] | 6.25 (≈ 9.02 µM) | 12.5 (≈ 18 µM) | 3.13 (≈ 4.52 µM) | 0.2 (≈ 0.289 µM) | 0.78 (≈ 1.13 µM) | 3.13 (≈ 4.52 µM) | 1.56 (≈ 2.25 µM) | 3.13 (≈ 4.52 µM) |  |  |  |  |  |  |  | 

More lines, main results first:

Row | MIC [1] [µg/mL] | MIC (Serratia No. 72) [µg/mL] | MIC [2] [µg/mL] | MIC (Proteus vulgaris HX 19) [µg/mL] | MIC [3] [µg/mL] | MIC (Escherichia coli NIHJ) [µg/mL] | MIC [4] [µg/mL] | MIC [5] [µg/mL] | SMILES | Minimum Inhibitory Concentration [1] [µg/mL] | Minimum Inhibitory Concentration (Serratia No. 72) [µg/mL] | Minimum Inhibitory Concentration [2] [µg/mL] | Minimum Inhibitory Concentration (Proteus vulgaris HX 19) [µg/mL] | Minimum Inhibitory Concentration [3] [µg/mL] | Minimum Inhibitory Concentration (Escherichia coli NIHJ) [µg/mL] | Minimum Inhibitory Concentration ([4]; Klebsiella pneumoniae 602) [µg/mL] | Minimum Inhibitory Concentration [5] [µg/mL]
6 | 6.25 (≈ 9.46 µM) | 12.5 (≈ 18.9 µM) | 3.13 (≈ 4.74 µM) | 0.2 (≈ 0.303 µM) | 0.78 (≈ 1.18 µM) | 3.13 (≈ 4.74 µM) | 3.13 (≈ 4.74 µM) | 3.13 (≈ 4.74 µM) | Nc1cccc(C(NC(=O)c2cnc3cccnc3c2O)C(=O)NC2C(=O)N3C(C(=O)O)=C(CSc4ccc(O)nn4)CSC23)c1 (stereo not drawn) [Example 65] |  |  |  |  |  |  |  | 
7 | 6.25 (≈ 9.03 µM) | 12.5 (≈ 18.1 µM) | 3.13 (≈ 4.52 µM) | 0.1 (≈ 0.145 µM) | 0.78 (≈ 1.13 µM) | 1.56 (≈ 2.26 µM) | 3.13 (≈ 4.52 µM) | 6.25 (≈ 9.03 µM) | CN(C)c1ccc2ncc(C(=O)NC(C(=O)NC3C(=O)N4C(C(=O)O)=C(CSc5nnnn5C)CSC34)c3cccc(N)c3)c(O)c2n1 (stereo not drawn) [Example 74] |  |  |  |  |  |  |  | 
8 | 6.25 (≈ 8.98 µM) | 12.5 (≈ 18 µM) | 6.25 (≈ 8.98 µM) | 0.2 (≈ 0.287 µM) | 1.56 (≈ 2.24 µM) | 3.13 (≈ 4.5 µM) | 3.13 (≈ 4.5 µM) | 12.5 (≈ 18 µM) | O=C(O)C1=C(CSc2nnc(CO)s2)CSC2C(NC(=O)C(NC(=O)c3cnc4cccnc4c3O)c3ccc(CO)cc3)C(=O)N12 (stereo not drawn) [Example 103] |  |  |  |  |  |  |  | 
9 | 3.13 (≈ 4.82 µM) | 25 (≈ 38.5 µM) | 3.13 (≈ 4.82 µM) | 0.1 (≈ 0.154 µM) | 0.78 (≈ 1.2 µM) | 3.13 (≈ 4.82 µM) | 1.56 (≈ 2.4 µM) | 3.13 (≈ 4.82 µM) | Cn1nnc(SCC2=C(C(=O)O)N3C(=O)C(NC(=O)[C@H](NC(=O)c4cnc5cccnc5c4O)c4ccc(O)cc4)C3SC2)n1 (stereo partly drawn) [Example 133] |  |  |  |  |  |  |  | 
10 | 6.25 (≈ 9.5 µM) | 50 (≈ 76 µM) | 6.25 (≈ 9.5 µM) | 0.2 (≈ 0.304 µM) | 0.39 (≈ 0.593 µM) | 6.25 (≈ 9.5 µM) | 3.13 (≈ 4.76 µM) | 6.25 (≈ 9.5 µM) | Cc1nnc(SCC2=C(C(=O)O)N3C(=O)[C@@H](NC(=O)[C@H](NC(=O)c4ccnnc4O)c4ccc(NC(N)=O)cc4)[C@H]3SC2)s1 [Example 16] |  |  |  |  |  |  |  | 
11 | 6.25 (≈ 9.94 µM) | > 200 | 12.5 (≈ 19.9 µM) | 0.39 (≈ 0.62 µM) | 0.78 (≈ 1.24 µM) | 12.5 (≈ 19.9 µM) | 25 (≈ 39.8 µM) | 12.5 (≈ 19.9 µM) | Cc1nnc(SCC2=C(C(=O)O)N3C(=O)C(NC(=O)C(NC(=O)c4cnccc4O)c4ccc(CO)cc4)C3SC2)s1 (racemic) [Example 90, 7-[DL-α-(4-Hydroxypyridine-3carbonamido)-α -p-hydroxymethylphenylacetamido]-3-(2-methyl-1,3,4-thiadiazol-5-yl)thiomethyl-3-cephem-4-carboxylic Acid] |  |  |  |  |  |  |  | 
12 | 6.25 (≈ 8.32 µM) | 12.5 (≈ 16.6 µM) | 3.13 (≈ 4.17 µM) | 0.1 (≈ 0.133 µM) | 1.56 (≈ 2.08 µM) | 1.56 (≈ 2.08 µM) | 1.56 (≈ 2.08 µM) | 3.13 (≈ 4.17 µM) | Cc1nnc(SCC2=C(C(=O)O)N3C(=O)[C@@H](NC(=O)[C@H](NC(=O)c4cnc5ccc(N(C)C)nc5c4O)c4ccc(NC(N)=O)cc4)[C@H]3SC2)s1 [Example 28] |  |  |  |  |  |  |  | 
